This experiment has as its system HIV-1 (H9/IIB strain). Nature of the experiment: Multiple Round HIV-1 Infection Assay (Viking Assay) in MT4-GFP cells. Particulars: inhibition of reproductive ratio R0. The class given is cell-based. In short, it runs like this: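 Inhibition of the reproductive ratio R0, derived from the rise in GFP-positive cells between ~48 h and ~72 h post-infection, was fitted by 4-parameter regression to give IC50. Cells infected at MOI ~0.01 were exposed to compound (typically 8.4 μM–0.42 nM final) in 10% or 50% normal human serum.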

[1] abbreviates: MT4-GFP cells infected with HIV-1, 10% normal human serum, read-out: Viking, IC50 (10% NHS).
[2] abbreviates: MT4-GFP cells infected with HIV-1, 50% normal human serum, read-out: Viking, IC50 (50% NHS).

Data on twelve molecules can be found in patent US11123355B2, “Antiviral benzyl-amine phosphodiamide compounds” (Merck Sharp & Dohme Corp., priority 2016, dated 2021).

Where two headings read alike, the source gives them in different places.

As a reminder, the IC50 is the concentration that inhibits the measured activity by half.

For the molecule `CCCOC(=O)C(C)(C)NP(=O)(CO[C@H](C)Cn1cnc2c(N)ncnc21)N(C)Cc1ccc(C(C)C)cc1` (stereo partly drawn) [Example 32B, propyl 2-(((R)-((((R)-1-(6-amino-9H-purin-9-yl)propan-2-yl)oxy)methyl)((4-isopropylbenzyl)(methyl)amino)phos-phoryl)amino)-2-methylpropanoate and propyl 2-(((S)-((((R)-1-(6-amino-9H-purin-9-yl)propan-2-yl)oxy)methyl)((4-isopropylbenzyl)(methyl)amino)phos-phoryl)amino)-2-methylpropanoate], the concentration for half-maximal inhibition (IC50) amounted to 0.01 µM under setting [1] and 0.041 µM under setting [2].

For the molecule `CCCOC(=O)C(C)(C)N[P@](=O)(CO[C@H](C)Cn1cnc2c(N)ncnc21)N(C)[C@H](C)c1ccc(OC(F)(F)F)cc1` [Example 33A, propyl 2-(((R)-((((R)-1-(6-amino-9H-purin-9-yl)propan-2-yl)oxy)methyl)(methyl((R)-1-(4-(trifluoromethoxy)phenyl)ethyl)amino)phos-phoryl)amino)-2-methylpropanoate and propyl 2-(((S)-((((R)-1-(6-amino-9H-purin-9-yl)propan-2-yl)oxy)methyl)(methyl((R)-1-(4-(trifluoromethoxy)phenyl)ethyl)amino)phos-phoryl)amino)-2-methylpropanoate], the IC50 came to 0.025 µM under setting [1] and 0.084 µM under setting [2].

Take `CC(C)OC(=O)C(C)(C)NP(=O)(CO[C@H](C)Cn1cnc2c(N)ncnc21)N[C@H](C)c1ccc(OC(F)(F)F)cc1` (stereo partly drawn) [Example 34A, isopropyl 2-(((R)-((((R)-1-(6-amino-9H-purin-9-yl)propan-2-yl)oxy)methyl)(((R)-1-(4-(trifluoromethoxy)phenyl)ethyl)amino)phos-phoryl)amino)-2-methylpropanoate and isopropyl 2-(((S)-((((R)-1-(6-amino-9H-purin-9-yl)propan-2-yl)oxy)methyl)(((R)-1-(4-(trifluoromethoxy)phenyl)ethyl)amino)phos-phoryl)amino)-2-methylpropanoate]: the half-maximal inhibitory concentration (IC50) worked out at 0.76 µM under setting [1] and 4.2 µM under setting [2].

As for `CC(C)OC(=O)C(C)(C)N[P@@](=O)(CO[C@H](C)Cn1cnc2c(N)ncnc21)N[C@H](C)c1ccc(Cl)cc1` [Example 35A, isopropyl 2-(((R)-((((R)-1-(6-amino-9H-purin-9-yl)propan-2-yl)oxy)methyl)(((R)-1-(4-chlorophenyl)ethyl)amino)phosphoryl)ami-no)-2-methylpropanoate and isopropyl 2-(((S)-((((R)-1-(6-amino-9H-purin-9-yl)propan-2-yl)oxy)methyl)(((R)-1-(4-chlorophenyl)ethyl)amino)phosphoryl)ami-no)-2-methylpropanoate], the half-inhibitory concentration (IC50) by setting is: under setting [1], 0.28 µM; under setting [2], 1.6 µM.

For `CC(C)OC(=O)C(C)(C)N[P@@](=O)(CO[C@H](C)Cn1cnc2c(N)ncnc21)NC1(c2ccc(Cl)cc2)CC1` [Example 37A, isopropyl 2-(((R)-((((R)-1-(6-amino-9H-purin-9-yl)propan-2-yl)oxy)methyl)((1-(4-chlorophenyl)cyclopropyl)amino)phos-phoryl)amino)-2-methylpropanoate and isopropyl 2-(((S)-((((R)-1-(6-amino-9H-purin-9-yl)propan-2-yl)oxy)methyl)((1-(4-chlorophenyl)cyclopropyl)amino)phos-phoryl)amino)-2-methylpropanoate], the 50% inhibitory concentration (IC50) worked out at 0.11 µM under setting [1] and 0.72 µM under setting [2].

For the molecule “isopropyl 2-(((R)-((((R)-1-(6-amino-9H- purin-9-yl)propan-2-yl)oxy)methyl)((2-(4- chlorophenyl)propan-2- yl)amino)phosphoryl)amino)-2- methylpropanoate and isopropyl 2-(((S)-((((R)-1-(6-amino-9H- purin-9-yl)propan-2-yl)oxy)methyl)((2-(4- chlorophenyl)propan-2- yl)amino)phosphoroyl)amino)-2- methylpropanoate [Example 36B]”, the IC50 under setting [1] stood at 0.2 µM and the IC50 under setting [2] was found to be 1.1 µM.

On to “propyl 2-(((R)-((((R)-1-(6-amino-9H-purin- 9-yl)propan-2-yl)oxy)methyl)((3- fluorobenzyl)amino)phosphoryl)amino)-2- methylpropanoate and propyl 2-(((S)-((((R)-1-(6-amino-9H-purin- 9-yl)propan-2-yl)oxy)methyl)((3- fluorobenzyl)amino)phosphoryl)amino)-2- methylpropanoate [Example 8A]”, for which the concentration for half-maximal inhibition (IC50) is 0.11 µM under setting [1] and 0.68 µM under setting [2].

In the case of “propyl 2-(((R)-((((R)-1-(6-amino-9H-purin- 9-yl)propan-2-yl)oxy)methyl)((3- fluorobenzyl)amino)phosphoryl)amino)-2- methylpropanoate and propyl 2-(((S)-((((R)-1-(6-amino-9H-purin- 9-yl)propan-2-yl)oxy)methyl)((3- fluorobenzyl)amino)phosphoryl)amino)-2- methylpropanoate [Example 8B]”, the IC50 came to 0.076 µM under setting [1] and 0.68 µM under setting [2].

For the molecule “propyl 2-(((R)-((((R)-1-(6-amino-9H-purin- 9-yl)propan-2-yl)oxy)methyl)((4- cyanobenzyl)amino)phosphoryl)amino)-2- methylpropanoate and propyl 2-(((S)-((((R)-1-(6-amino-9H-purin- 9-yl)propan-2-yl)oxy)methyl)((4- cyanobenzyl)amino)phosphoryl)amino)-2- methylpropanoate [Example 6A]”, the half-inhibitory concentration (IC50) is, setting by setting: under setting [1], 0.07 µM; under setting [2], 0.66 µM.

On to “propyl 2-(((R)-((((R)-1-(6-amino-9H-purin- 9-yl)propan-2-yl)oxy)methyl)((4- cyanobenzyl)amino)phosphoryl)amino)-2- methylpropanoate and propyl 2-(((S)-((((R)-1-(6-amino-9H-purin- 9-yl)propan-2-yl)oxy)methyl)((4- cyanobenzyl)amino)phosphoryl)amino)-2- methylpropanoate [Example 6B]”, for which the concentration for half-maximal inhibition (IC50) reads like this: under setting [1], 0.25 µM; under setting [2], 0.85 µM.

Turning to “propyl 2-(((R)-((((R)-1-(6-amino-9H-purin- 9-yl)propan-2-yl)oxy)methyl)((4- isopropylbenzyl)amino)phosphoryl)amino)- 2-methylpropanoate and propyl 2-(((S)-((((R)-1-(6-amino-9H-purin- 9-yl)propan-2-yl)oxy)methyl)((4- isopropylbenzyl)amino)phosphoryl)amino)- 2-methylpropanoate [Example 5B]”, the concentration for half-maximal inhibition (IC50) by setting is: under setting [1], 0.048 µM; under setting [2], 0.24 µM.

Turning to “propyl 2-(((R)-((((R)-1-(6-amino-9H-purin- 9-yl)propan-2-yl)oxy)methyl)(((R)-1-(4- cyanophenyl)-2,2,2- trifluoroethyl)amino)phosphoryl)amino)-2- methylpropanoate and propyl 2-(((S)-((((R)-1-(6-amino-9H-purin- 9-yl)propan-2-yl)oxy)methyl)(((R)-1-(4- cyanophenyl)-2,2,2- trifluoroethyl)amino)phosphoryl)amino)-2- methylpropanoate [Example 23A]”, the IC50 turned out to be 0.0061 µM under setting [1] and 0.037 µM under setting [2].
